Experimental data from the pKa sets of Baltruschat and Czodrowski (2020).

Conditions: acidic group
[O-]N=C1/C(=N/O)CCC/C1=N\O showed a pKa of 11.1.
In the case of Oc1ccc2cc(I)ccc2c1, the pKa is reported as 9.23.
With CC(C)(S)[C@@H](C(=O)O)n1cc[nH+]c1Cc1ccccc1 the pKa was 2.81.
In the case of CCCCCCCC[NH2+]CCC(=O)O, the pKa is reported as 3.56.
With Cc1nc(N)cc(O)[nH+]1 the pKa was 1.7.
Work on Cc1cc2nnn(O)c2cc1Cl yielded a pKa of 4.57.
Work on Cc1cccc(C(O)C(C(=O)O)c2ccc(-c3ccccc3)cc2)c1 (configuration not stated) yielded a pKa of 4.17.
In the case of C[NH+](C)CCc1c[nH]c2cccc(O)c12, the pKa is reported as 8.47.
With Nc1ncc2[nH]cnc2n1 the pKa was 9.93.
Compound N#CO has a pKa of 3.67.
In the case of N#CCC(=O)O, the pKa is reported as 2.46.
CCC(=O)c1cc(C(=O)c2ccccc2)n[nH]1 showed a pKa of 9.14.
Compound C[N+](C)(C)c1ccc(O)cc1 has a pKa of 8.25.
Compound Cc1cccc([P+](c2cccc(C)c2)(c2cccc(C)c2)C2c3ccccc3-c3ccccc32)c1 has a pKa of 9.55.
In the case of Cc1nn(-c2ccccc2)cc1C(=O)O, the pKa is reported as 4.58.
Compound c1ccc(-c2nc3cnccc3[nH]2)cc1 has a pKa of 10.3.
Cc1ccc(C(=S)Nc2ccccc2)cc1 gave a pKa of 11.5.
Compound O=c1[nH]cnc2[nH]ncc12 has a pKa of 9.38.
O=C(O)/C=C\c1ccc(O)cc1 gave a pKa of 4.08.
O=c1ccc(O)c(Br)cc1 gave a pKa of 4.9.
With CC(=O)c1ccc(O)c([N+](=O)[O-])c1 the pKa was 5.09.
Compound OC(O)=C(O)c1ccccc1 has a pKa of 6.39.
Compound C=CCOc1ccc(C(=O)O)cc1 has a pKa of 4.45.
With O=C(O)[C@@H]1O[C@H](Oc2ccc3[nH+]c(O)ccc3c2)[C@@H](O)[C@H](O)[C@H]1O the pKa was 3.07.
For O=C([O-])c1ccccc1S, the pKa was 7.6.
Nc1cc(N)c2cccnc2c1O showed a pKa of 10.8.
O=C1/C(=C2\C=CC=CN2)C(=O)c2cc([N+](=O)[O-])ccc21 gave a pKa of 9.26.
In the case of O=C/C(O)=C\[O-], the pKa is reported as 13.
With CC1(C)CCC(C(=O)O)=[N+]1[O-] the pKa was 2.8.
In the case of O=c1ccccc(O)c1O, the pKa is reported as 6.72.
For O=c1ccc2ccccc2cc1O, the pKa was 10.
COc1ccc(C)c(C(=O)O)c1 gave a pKa of 3.84.
Oc1cccc2c1Nc1ccccc1N2 gave a pKa of 10.9.
For Cc1ccc(C)c(O)c1, the pKa was 10.4.
Compound O=C(O)c1coc2ccccc12 has a pKa of 4.18.
For CC(=O)CN=O, the pKa was 8.4.
In the case of Oc1cccc(-c2ccccc2)c1, the pKa is reported as 9.59.
With On1nnc2cc(Cl)ccc21 the pKa was 4.18.
In the case of O=[N+]([O-])/C=C/c1ccc(O)cc1, the pKa is reported as 7.98.
For O=C(O)c1ccc(C2CC2)cc1, the pKa was 4.42.
With C=CC(CC(C)(C)CC(C)(C)C)c1ccc2cccnc2c1O (configuration not stated) the pKa was 10.
CCCC[NH2+]CC(=O)O showed a pKa of 2.32.
In the case of CCCCCP(=O)(O)CCCCC, the pKa is reported as 3.23.
For Cc1ccc2c(c1[O-])-c1c-2ccc(C)c1O, the pKa was 11.5.
Compound Cc1cc(O)ccc1[N+](C)(C)C has a pKa of 8.34.
With C[NH+](C)CCc1ccccc1O the pKa was 8.75.
Work on CCC(=O)c1cc(C(C)=O)n[nH]1 yielded a pKa of 9.05.
CC(C)c1cccc(=O)c(O)c1 showed a pKa of 7.22.
With [NH3+]C1(C(=O)O)CCCCC1 the pKa was 2.66.
For O=C(O)[C@@H]1O[C@H](Oc2ccc(Br)cc2)[C@@H](O)[C@H](O)[C@H]1O, the pKa was 3.02.
Compound OCc1nc2ncncc2[nH]1 has a pKa of 8.79.
For NNC(=O)c1ccccc1N, the pKa was 12.8.
Cc1ccc(O)c(Cc2cc([N+](=O)[O-])ccc2[O-])c1 showed a pKa of 11.5.
Compound O=C(O)[C@H]1C[C@@H]1c1ccc([N+](=O)[O-])cc1 has a pKa of 4.45.
Work on O=C(O)c1ccc[nH]1 yielded a pKa of 4.35.
Nc1c2ccccc2[nH+]c2cc(O)ccc12 gave a pKa of 6.63.
Work on O=c1oc2cc(O)ccc2cc1-c1nc2cc(Cl)ccc2o1 yielded a pKa of 6.8.
With O=C(O)C(CO)c1ccccc1 (configuration not stated) the pKa was 4.23.
Compound O=C(O)[C@H]1C[C@@H]1c1cccc([N+](=O)[O-])c1 has a pKa of 4.41.
For O=C(O)c1c2ccccc2cc2ccccc12, the pKa was 3.65.
In the case of CCn1nnnc1NC(C)=O, the pKa is reported as 8.38.
Nc1cccc[n+]1O showed a pKa of 2.67.
CC1(C)C(=O)[CH-]C(=O)CC1=O gave a pKa of 9.73.
CCCCCCCC(=O)N[C@H]1C(=O)N2[C@H]1SC(C)(C)[C@H]2C(=O)O gave a pKa of 2.66.
For Cc1nc(NS(=O)(=O)c2ccc(N)cc2)sc1C, the pKa was 6.97.
O=C(O)CC[C@H]1CC[C@H](O)CC1 gave a pKa of 4.86.
Work on NS(=O)(=O)c1ccc(P(=O)([O-])O)cc1 yielded a pKa of 6.38.
O=NCC(=O)c1ccncc1 gave a pKa of 7.8.
Cc1nc2ncncc2[nH]1 gave a pKa of 9.37.
With O=C(O)CSc1cccc([N+](=O)[O-])c1 the pKa was 3.4.
Work on [O-]c1nc(S)c2[nH]cnc2n1 yielded a pKa of 11.4.

Same assay, conditions: basic group
CCCCCCCNCc1ccc(C)cc1 gave a pKa of 10.
Work on CN(C)c1cccc(Cl)c1 yielded a pKa of 3.83.
Work on C[Si](C)(C)CNC1CCCCC1 yielded a pKa of 11.
Compound CCCCCCN(CC(O)CC)CC(O)CC (configuration not stated) has a pKa of 8.6.
Compound Brc1c[nH]cn1 has a pKa of 3.8.
In the case of CN(C)c1ccc(/C=C/c2cc(N)c3ccccc3n2)cc1, the pKa is reported as 9.7.
In the case of CN[C@H]1CCCC[C@@H]1O, the pKa is reported as 10.2.
COC(=O)c1ccc2ncccc2c1 showed a pKa of 3.8.
With c1cncc(-c2ccncc2)c1 the pKa was 4.85.
With c1ccc(Oc2cccnc2)cc1 the pKa was 4.24.
For Cc1ccccc1CN(C)C, the pKa was 8.71.
Compound CC[NH2+]/C(=C/C(=O)c1cccc(S(=O)(=O)[O-])c1)n1ccnc1 has a pKa of 4.5.
Nc1ncc2[nH]cnc2n1 gave a pKa of 3.8.
Compound Cc1c(Cn2ccnc2)oc2ccc(C(=O)[O-])cc12 has a pKa of 6.08.
In the case of Cc1cc(C)n(C)n1, the pKa is reported as 3.96.
Work on c1cncc(-c2ccco2)c1 yielded a pKa of 4.62.
In the case of C[C@H](CCCNCc1ccccc1)[C@H]1CC[C@H]2[C@@H]3CC[C@@H]4C[C@H](O)CC[C@]4(C)[C@H]3C[C@H](O)[C@]12C, the pKa is reported as 9.07.
With Cc1cccc(C2NCCS2)c1 (configuration not stated) the pKa was 5.26.
Compound Brc1ccc(Nc2ccccc2)cc1 has a pKa of 1.73.
Compound CCCCNN has a pKa of 7.82.
For CCCCN(CCCC)c1nnc(-c2ccccc2)cc1C, the pKa was 4.88.
For CN(C)c1ccc(Cl)cc1, the pKa was 4.39.
With C[NH+](C)CCN the pKa was 6.63.
Compound CCNCCNCC has a pKa of 10.5.
With Nc1cccc2ccc([N+](=O)[O-])cc12 the pKa was 2.83.
In the case of c1ccc(-c2ccc3nc(CN4CCOCC4)cn3n2)cc1, the pKa is reported as 6.25.
Cc1cc(C)n(Cc2cc(C)n(C)n2)n1 showed a pKa of 3.39.
Compound CCC(C)(N)CC has a pKa of 10.9.
In the case of c1ccc(-c2nc3cnccc3[nH]2)cc1, the pKa is reported as 6.
Compound COc1c(Br)cccc1C(=O)N[C@@H]1C[C@H]2CC[C@@H](C1)N2Cc1ccccc1 has a pKa of 8.73.
With CC1=NCCS1 the pKa was 5.29.
Compound C1CCN(CC[NH+]2CCCCC2)CC1 has a pKa of 6.12.
In the case of O=C(CCN1CCOCC1)c1cccc(Br)c1, the pKa is reported as 6.8.
CC(C)N1CCCC1 gave a pKa of 11.2.
COCc1ccccc1CN(C)C showed a pKa of 9.19.
In the case of CCCCCCCCN(CCO)CC(O)CC (configuration not stated), the pKa is reported as 8.3.
Work on Nc1cc(N)c2cccnc2c1O yielded a pKa of 6.96.
Compound Nc1nc(N)nc(Nc2ccccc2)n1 has a pKa of 4.65.
N#CC(CCN1CCCCC1)(c1ccccc1)c1ccccc1 gave a pKa of 8.07.
With CCN(CCO)CC(C)O (configuration not stated) the pKa was 8.9.
In the case of CC(=O)Nc1ccc(S(=O)(=O)Nc2ccccn2)cc1, the pKa is reported as 2.03.
CCCCCn1ccnc1 showed a pKa of 7.12.
NC/C=C\C(=O)[O-] gave a pKa of 9.84.
For OCC1=CCN2CC[C@@H](O)[C@@H]12, the pKa was 8.92.
With OCCN(CCO)Cc1nc2ccccc2[nH]1 the pKa was 5.93.
Work on C=CC(CC(C)(C)CC(C)(C)C)c1ccc2cccnc2c1O (configuration not stated) yielded a pKa of 4.51.
With C=CCC(C)(CN(CC)CC)OC(=O)CC(C)C (configuration not stated) the pKa was 8.1.
With Nc1cc(Cl)cc(C[NH3+])c1 the pKa was 3.54.
Work on Clc1ccc(-c2ccc(Cl)cn2)nc1 yielded a pKa of 3.96.
N[C@H]1CCC[C@@H]1O showed a pKa of 9.28.
With Cc1nc2cc(N)ccc2[nH]1 the pKa was 6.95.
Work on Brc1cnc2ccccc2c1 yielded a pKa of -0.44.
Work on c1cncc([C@@H]2CCCCN2)c1 yielded a pKa of 4.01.
For CN(C)CCCC(=O)Oc1ccccc1, the pKa was 9.7.
Nc1ccc(-c2ncc(-c3ccc(Cl)cc3)o2)cc1 showed a pKa of 2.87.
Compound NCCc1c[nH]c2ccccc12 has a pKa of 10.2.
With CNC(N)=O the pKa was 0.8.
NCCc1cccnc1 gave a pKa of 9.44.
In the case of CCCSCCN, the pKa is reported as 9.43.
Work on CCNc1ccccc1 yielded a pKa of 5.29.
Work on OCc1nc2ncncc2[nH]1 yielded a pKa of 2.62.
In the case of C=CCCN1C[C@H]2C[C@@H](C1)c1cccc([O-])[n+]1C2, the pKa is reported as 7.
NNC(=O)c1ccccc1N showed a pKa of 3.47.
For CN(C)c1ccc2c(c1)Sc1cc(N(C)C)ccc1N2, the pKa was 5.53.
In the case of Nc1c([N+](=O)[O-])ccc2ccccc12, the pKa is reported as -1.6.
Cc1cnc2c(ccc3c(C)ccnc32)c1C showed a pKa of 5.99.
CN(C)c1cccc([N+](C)(C)C)c1 gave a pKa of 2.6.
O=C(O)c1ccc[nH]1 gave a pKa of -0.65.
Cc1cc(-c2ncc[nH]2)n[nH]1 gave a pKa of 6.16.
With CN(c1ccccc1)C(C)(C)C the pKa was 7.5.
Compound C#CCCCCN has a pKa of 10.5.
Compound Cc1cc(Cl)n(C)c2nc3ccccc3c1-2 has a pKa of 7.45.
Compound CCOC(=O)c1ccc(CCN)cc1 has a pKa of 9.58.
c1ccc(-c2ccn[nH]2)[nH+]c1 gave a pKa of -1.1.
In the case of C#C[C@]1(O)C[C@@H](C)N(C)[C@H]2CCCC[C@@H]21, the pKa is reported as 8.99.
For OCCN1CCOCC1, the pKa was 7.18.
Work on OCCN(CCO)CCc1nnn[nH]1 yielded a pKa of 9.2.
In the case of N[C@@H](Cc1nc(I)[n-]c1I)C(=O)[O-], the pKa is reported as 9.76.
Compound CCN(CC)CC#N has a pKa of 4.18.
CN(C)CCCCC(=O)Oc1cccc([N+](=O)[O-])c1 gave a pKa of 10.1.
For O=Cc1ccc(-c2ncc(-c3ccccc3)o2)cc1, the pKa was 0.02.
With Cc1cccc2ncccc12 the pKa was 5.
For CC(C)[NH+](CCC(c1ccccc1)c1ccccn1)C(C)C (configuration not stated), the pKa was 3.2.
CN(C)c1cccc([N+](=O)[O-])c1 gave a pKa of 2.58.
Compound Nc1cccc2cn[nH]c12 has a pKa of 3.05.
In the case of Cc1cc(-c2ccccc2)n(-c2ccc(C(=O)O)cc2)n1, the pKa is reported as 1.59.
Cc1ncnc2nccnc12 showed a pKa of 2.92.
C[Si](C)(C)c1cccc(N)c1 gave a pKa of 4.64.
Compound CCCCCNCc1ccccc1O has a pKa of 8.65.
Work on CC(C)n1cnc2ccccc21 yielded a pKa of 5.74.
Work on COc1cc2c(cc1OC)[C@]13CCN4CC5=CCO[C@H]6CC(=O)N2[C@H]1C6[C@@]5(S(=O)(=O)[O-])C[C@H]43 (some centres not stated) yielded a pKa of 7.45.
With CC1/C(=N\O)C[C@@H]2N=C(c3ccccc3)O[C@@]13[C@@H]1OC(=O)[C@H](C)[C@H]1CC[C@]23C (some centres not stated) the pKa was 4.65.
For CCCCN1CCCCC1C (configuration not stated), the pKa was 10.7.
For Cc1ccnc([O-])n1, the pKa was 9.8.
Cc1nc2ncncc2[nH]1 showed a pKa of 2.85.
In the case of CCCCCCCCN(CC(O)CC)CC(O)CC (configuration not stated), the pKa is reported as 7.5.
Compound CCn1cc(C#N)c(=O)c2ccccc21 has a pKa of -1.55.
In the case of Nc1cccc([NH3+])c1O, the pKa is reported as 2.7.
Work on c1ccc2c(c1)N1CC[NH+]2CC1 yielded a pKa of 2.5.
C[Si](C)(C)CNC[Si](C)(C)C showed a pKa of 11.
Compound Cc1cc2cccnc2c2ncccc12 has a pKa of 5.26.
